Source: article PMC6127857 (Journal of structural biology, 2018)

Key:
AmpKR2 [1] = target: AmpKR2 (Streptomyces nodosus, UniProt Q93NW7, G2883T/Q2892H); experiment: X-ray crystal structure, […] Å, co-crystallised; assay type: binding; details: ternary complex with 2-methyl-3-oxopentanoyl-pantetheine; 3 mM NADP+
AmpKR2 [2] = target: AmpKR2 (Streptomyces nodosus, UniProt Q93NW7); experiment: X-ray crystal structure, […] Å, co-crystallised; assay type: binding; details: ternary complex with 2-methyl-3-oxopentanoyl-pantetheine; 3 mM NADP+

With `NC(=O)c1ccc[n+]([C@@H]2O[C@H](COP(=O)(O)OP(=O)(O)OC[C@H]3O[C@@H](n4cnc5c(N)ncnc54)[C@H](OP(=O)(O)O)[C@@H]3O)[C@@H](O)[C@H]2O)c1` [NADP^+] the “X-ray crystal structure, 1.96 Å, co-crystallised” value (AmpKR2 [1]) was “both wild type AmpKR2 and its G355T/Q364H mutant” and the “X-ray crystal structure, 1.80 Å, co-crystallised” value (AmpKR2 [2]) was “well-defined electron density for NADP^+ and 2-methyl-3-oxopentanoyl-pantetheine was observed in the active sites”.
